Source: patent US20250215039A1, “NUCLEOSIDES FOR TREATING CANCER” (PRIMEFOUR THERAPEUTICS, INC., priority 2022, published 2025)
pIC50: −log10 of the molar value. Read-outs that look alike come from different tables or passages of the source.

System: cancer cell lines
Experiment: Cancer cell proliferation activity (CellTiterGlo, 72 h)
Assay type: cell-based
Conditions: 72 h, 72 h, read-out: IC50 cell proliferation
Outline: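 Readout is CellTiterGlo luminescence after 72 h compound exposure (0.1% DMSO final), started one day post-seeding, at 37 °C.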

## C[C@]1(CO)O[C@@H](n2cnc3c(N)nc(F)nc32)[C@H](O)[C@@H]1O [Cpd. No. 178, (2R,3S,4R,5R)-5-(6-amino-2-fluoro-9H-purin-9-yl)-2-(hydroxymethyl)-2-methyltetrahydrofuran-3,4-diol]
5637 (bladder)
  pIC50: 6.80
CLS439 (bladder)
  pIC50: 6.11
HS729 (muscle)
  pIC50: 6.92
J82 (bladder)
  pIC50: 7.10
JAR (placenta)
  pIC50: 7.52
MT3 (breast)
  pIC50: 7.40
PANCI (pancreas)
  pIC50: 4.83
PC3 (prostate)
  pIC50: 7.15
RD (muscle)
  pIC50: 7.15
T24 (bladder)
  pIC50: 7.05
Homo sapiens, 22Rv1, 72 h, 22RV1 (prostate)
  pIC50: 6.60
Homo sapiens, 786-0, 72 h, 786O (kidney)
  pIC50: 7.15
Homo sapiens, A204, 72 h, A204 (muscle)
  pIC50: 7.52
Homo sapiens, A549, 72 h, A549 (lung)
  pIC50: 6.43
Homo sapiens, A673, 72 h, A673 (bone)
  pIC50: 6.44
Homo sapiens, A2780, 72 h, A2780 (ovary)
  pIC50: 6.82
Homo sapiens, A-375, 72 h, A375 (skin)
  pIC50: 7.40
Homo sapiens, A-431, 72 h, A431 (skin)
  pIC50: 7.30
Homo sapiens, ACHN, ACHN (kidney)
  pIC50: 6.34
Homo sapiens, ASPC1, 72 h, ASPC1 (pancreas)
  pIC50: 7.52
Homo sapiens, BT-20, 72 h, BT20 (breast)
  pIC50: 7.15
Homo sapiens, BXPC-3, 72 h, BXPC3 (pancreas)
  pIC50: 6.28
Homo sapiens, C-33-A, C33A (endometrial)
  pIC50: 7.22
Homo sapiens, CAKI-1, 72 h, CAKI1 (kidney)
  pIC50: 8.00
Homo sapiens, COLO 205, 72 h, COLO205 (colon)
  pIC50: 6.77
Homo sapiens, COLO-678, 72 h, COLO678 (colon)
  pIC50: 6.19
Homo sapiens, Ca-Ski, CASKI (endometrial)
  pIC50: 7.40
Homo sapiens, Caco-2, 72 h, CACO2 (colon)
  pIC50: 6.80
Homo sapiens, Calu-6, 72 h, CALU6 (lung)
  pIC50: 7.52
Homo sapiens, DLD-1, 72 h, DLD1 (colon)
  pIC50: 6.46
Homo sapiens, DU-145, 72 h, DU145 (prostate)
  pIC50: 7.70
Homo sapiens, EFO-21, 72 h, EFO21 (ovary)
  pIC50: 7.10
Homo sapiens, EJ-28, 72 h, EJ28 (bladder)
  pIC50: 7.22
Homo sapiens, Granta-519, 72 h, GRANTA-519 (hematological)
  pIC50: 5.55
Homo sapiens, HCT-15, 72 h, HCT15 (colon)
  pIC50: 6.85
Homo sapiens, HCT-116, 72 h, HCT116 (colon)
  pIC50: 6.80
Homo sapiens, HEK293, 72 h, HEK293 (kidney)
  pIC50: 7.15
Homo sapiens, HL-60, 72 h, HL-60 (hematological)
  pIC50: 7.40
Homo sapiens, HT-29, 72 h, HT29 (colon)
  pIC50: 7.30
Homo sapiens, HT-1080, 72 h, HT1080 (connective tissue)
  pIC50: 5.68
Homo sapiens, HeLa, HELA (endometrial)
  pIC50: 7.15
Homo sapiens, HepG2, 72 h, HEPG2 (liver)
  pIC50: 7.22
Homo sapiens, Hs-578T, HS578T (breast)
  pIC50: 7.15
Homo sapiens, IGROV-1, 72 h, IGROV1 (ovary)
  pIC50: 7.52
Homo sapiens, IMR-90, 72 h, IMR90 (lung)
  pIC50: 7.30
Homo sapiens, JEG-3, 72 h, JEG3 (placenta)
  pIC50: 7.40
Homo sapiens, JIMT-1, 72 h, JIMT1 (breast)
  pIC50: 7.70
Homo sapiens, K562, 72 h, K-562 (hematological)
  pIC50: 5.93
Homo sapiens, Kasumi 1, 72 h, KASUMI-1 (hematological)
  pIC50: 7.70
Homo sapiens, L-363, 72 h, L-363 (hematological)
  pIC50: 7.70
Homo sapiens, LoVo, LOVO (colon)
  pIC50: 7.70
Homo sapiens, MCF7, 72 h, MCF7 (breast)
  pIC50: 5.59
Homo sapiens, MDA-MB-231, 72 h, MDAMB231 (breast)
  pIC50: 5.97
Homo sapiens, MDA-MB-435, 72 h, MDAMB435 (skin)
  pIC50: 6.72
Homo sapiens, MDA-MB-436, 72 h, MDAMB436 (breast)
  pIC50: 7.30
Homo sapiens, MDA-MB-468, 72 h, MDAMB468 (breast)
  pIC50: 7.05
Homo sapiens, MG-63, 72 h, MG63 (bone)
  pIC50: 5.44
Homo sapiens, MHH-ES-1, 72 h, MHHES1 (bone)
  pIC50: 7.00
Homo sapiens, MIA PaCa-2, 72 h, MIAPACA2 (pancreas)
  pIC50: 5.14
Homo sapiens, MINO, MINO (hematological)
  pIC50: 7.70
Homo sapiens, MV4-11, 72 h, MV4-11 (hematological)
  pIC50: 7.70
Homo sapiens, NCI-H23, 72 h, NCI-H23 (lung)
  pIC50: 7.22
Homo sapiens, NCI-H82, 72 h, NCIH82 (lung)
  pIC50: 7.15
Homo sapiens, NCI-H292, 72 h, NCIH292 (lung)
  pIC50: 6.08
Homo sapiens, NCI-H460, 72 h, NCIH460 (lung)
  pIC50: 7.40
Homo sapiens, OVCAR-3, 72 h, OVCAR3 (ovary)
  pIC50: 7.52
Homo sapiens, OVCAR-4, 72 h, OVCAR4 (ovary)
  pIC50: 7.10
Homo sapiens, PLC-PRF-5, 72 h, PLCPRF5 (liver)
  pIC50: 6.35
Homo sapiens, Panc1005, 72 h, PANC1005 (pancreas)
  pIC50: 7.22
Homo sapiens, Ramos, RAMOS (hematological)
  pIC50: 6.89
Homo sapiens, SAOS-2, 72 h, SAOS2 (bone)
  pIC50: 7.30
Homo sapiens, SF-268, 72 h, SF268 (brain)
  pIC50: 5.73
Homo sapiens, SF-295, 72 h, SF295 (brain)
  pIC50: 6.64
Homo sapiens, SK-BR-3, 72 h, SKBR3 (breast)
  pIC50: 8.00
Homo sapiens, SK-HEP1, 72 h, SKHEP1 (liver)
  pIC50: 6.35
Homo sapiens, SK-LMS-1, 72 h, SKLMS1 (uterus)
  pIC50: 7.40
Homo sapiens, SK-MEL-5, 72 h, SKMEL5 (skin; SKMELS [sic] in Table 9E)
  pIC50: 6.24
Homo sapiens, SK-MEL-28, 72 h, SKMEL28 (skin)
  pIC50: 7.00
Homo sapiens, SK-N-AS, SKNAS (brain)
  pIC50: 7.15
Homo sapiens, SK-N-SH, SKNSH (brain)
  pIC50: 7.52
Homo sapiens, SK-OV-3, 72 h, SKOV3 (ovary)
  pIC50: 7.22
Homo sapiens, SNB-75, 72 h, SNB75 (brain)
  pIC50: 6.80
Homo sapiens, SU-DHL10, 72 h, SU-DHL-10 (hematological)
  pIC50: 6.36
Homo sapiens, SU-DHL-6, 72 h, SU-DHL-6 (hematological)
  pIC50: 7.52
Homo sapiens, SW-620, 72 h, SW620 (colon)
  pIC50: 7.30
Homo sapiens, TE-671, 72 h, TE671 (muscle)
  pIC50: 6.43
Homo sapiens, THP-1, 72 h, THP-1 (hematological)
  pIC50: 5.75
Homo sapiens, U2OS, U20S (bone; U2OS in Table 9E)
  pIC50: 7.22
Homo sapiens, U-87 MG, U87MG (brain)
  pIC50: 5.70
Homo sapiens, UMUC3, 72 h, UMUC3 (bladder)
  pIC50: 6.01
Homo sapiens, UO-31, 72 h, UO31 (kidney)
  pIC50: 7.40
Homo sapiens, WSU-NHL, WSU-NHL (hematological)
  pIC50: 7.52
NCI-H358M, NCIH358M (lung)
  pIC50: 7.15
PBMC, PBMC (hematological)
  pIC50: 6.49
RD-ES, RDES (bone)
  pIC50: 7.52
